Source: PubChem BioAssay AID463206 (Broad Institute, 2010)
The source made the active and inactive calls.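 How the source made its calls: active means caspase luminescence falls with dose and the half-maximal concentration AC50 from the fitted curve is at or below a set limit; inconclusive means flat fit at 30 to 70% signal loss, or invalid fit; inactive means AC50 above the limit, or signal rises instead.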

The compounds below were run on INS-1E cytokine-induced caspase-3/7, Caspase-Glo luminescence, 48 h (assay: suppression of cytokine-driven beta-cell apoptosis – INS-1E rat cells, luminescence, orthogonal assay for beta-cell apoptosis protection project, dose response (AID 463206)).

SMILES	AC50
COc1ccc(OC)c(NC(=O)c2nc(S(=O)(=O)Cc3ccccc3)ncc2Cl)c1	> 26 µM (inactive)
Cc1ccc(NNC(=O)c2ccno2)cc1Cl	> 26 µM (inactive)
CCc1ccc(S(=O)(=O)/N=C2/C=C(Sc3ncn[nH]3)C(=O)c3ccccc32)cc1	> 26 µM (inactive)
COc1ccc(C(=O)Nc2ccccc2C(=O)N/N=C/c2ccccn2)cc1OC	> 26 µM (inactive)
O=C(c1ccco1)c1coc2c1cc(O)c1ccccc12	> 26 µM (inactive)
CC1=CC(C)(C)N(C(=O)CSc2nnc(-c3ccc(C)cc3)o2)c2ccc(C)cc21	> 12 µM (inactive)
CCCCC1CCC(C(=O)N(CC(C)C)c2c(N)n(Cc3ccccc3)c(=O)[nH]c2=O)CC1 (configuration not stated)	> 26 µM (inactive)
Nc1nonc1-n1nnc(C(=O)N/N=C/c2ccccc2O)c1CN1CCCC1	> 26 µM (inactive)
CCN(c1ccccc1)S(=O)(=O)c1ccc(NC(=O)c2nc(S(C)(=O)=O)ncc2Cl)cc1	> 26 µM (inactive)
Cc1ccc2nc(/C(C#N)=C\c3ccc([N+](=O)[O-])o3)[nH]c2c1	> 26 µM (inactive)
C/C(=N\NC(=O)c1nnn(-c2nonc2N)c1-c1ccccc1)c1ccccc1O	> 26 µM (inactive)
Oc1ccc(CN2CCCc3ccccc32)c2cccnc12	> 26 µM (inactive)
S=C(Nc1ccc(Cl)cc1)Nc1cccc2cnccc12	> 26 µM (inactive)
CCN(CC)CCC(=O)Nc1cccc2c1C(=O)c1ccccc1C2=O	2.26 µM
COc1ccc(-c2ccnc(SCC(=O)N3CCN(c4ccccc4)CC3)n2)cc1	> 26 µM (inactive)
COc1ccc(/C=C/C(=O)c2ccc([N+](=O)[O-])o2)cc1OC	> 26 µM (inactive)
O=C(c1ccccc1)c1c2c(cc3sc4ccccc4[n+]13)-c1cccc3cccc-2c13	> 26 µM (inactive)
COc1ccccc1NC1=C(N2CCCCC2)C(=O)c2ccccc2C1=O	> 26 µM (inactive)
COc1ccc(C(NC(=O)C(C)C)c2ccc3cccnc3c2O)cc1 (configuration not stated)	> 26 µM (inactive)
CCCCC(=O)NC(c1ccc(N(CC)CC)cc1)c1ccc2cccnc2c1O (configuration not stated)	> 26 µM (inactive)
CC[N+]1=C(C)C(C)(C)c2cc(C)ccc21	> 26 µM (inactive)
CCOc1ccc2nc(NC(=O)c3cccc(-c4cc5ccccc5oc4=O)c3)sc2c1	> 26 µM (inactive)
COc1ccc(NC(=O)/C(Cl)=C(/Cl)S(=O)Cc2ccccc2)cn1 (configuration not stated)	> 26 µM (inactive)
Cc1ccc(C)c(S(=O)(=O)N2CCN(Cc3ccc(O)c4ncccc34)CC2)c1	> 26 µM (inactive)

SMILES	AC50
COC1=CC(=O)[C@]2(C=C1OC)OC[C@@H]1Oc3c(ccc4c3C=CC(C)(C)O4)C(=O)[C@@H]12	> 26 µM (inactive)
CC(C)(C)c1ccc(NNC(=O)C2CCC2)cc1	> 26 µM (inactive)
Cc1ccc(/C=N/Nc2ccnc3cc(Cl)ccc23)c(C)c1	> 12 µM (inactive)
Brc1ccccc1CN1CCN(Cc2c[nH]c3ccccc23)CC1	> 26 µM (inactive)
O=C(Nc1ccc(Cl)cc1)/C(=C/c1cccc(O)c1)c1nc2ccccc2s1	> 26 µM (inactive)
COc1cccc(/C=N/NC(=O)c2cc3cc([N+](=O)[O-])ccc3s2)c1O	> 26 µM (inactive)
N#Cc1ccc(NC(=O)Nc2ccc(Cl)cc2)cc1	> 26 µM (inactive)
Cc1ccc(NC(=O)c2cc(S(=O)(=O)NCCC3=CCCCC3)ccc2F)cc1	> 26 µM (inactive)
COc1ccc(Cn2cc3c(-c4ccc(F)cc4)nnc-3c3cc(OC)c(OC)cc32)cc1	12.9 µM
CC1=NNC(=O)/C1=C\c1cn(-c2ccccc2)nc1-c1cccs1	> 26 µM (inactive)
Cn1ncc2c(O/N=C(\N)c3ccc(C(C)(C)C)cc3)ncnc21	> 26 µM (inactive)
COc1ccccc1N1CC(C)(C)C(=O)N(C(=O)c2ccc(Cl)cc2)C1=S	> 12 µM (inactive)
Cc1ccccc1/C=C/C(=O)c1ccc([N+](=O)[O-])o1	> 26 µM (inactive)
O=C(c1ccc(Cl)cc1)C(CN1CCCCC1)c1ccccc1 (configuration not stated)	> 26 µM (inactive)
Cc1cc2cc(CN3C(=O)c4ccccc4C3=O)ccc2n1C	> 26 µM (inactive)
CC(=O)NC(c1cccs1)c1cc([N+](=O)[O-])c2cccnc2c1O (configuration not stated)	> 26 µM (inactive)
CCOC(=O)c1c(NC(=O)C[n+]2ccc(Cc3ccccc3)cc2)sc(C)c1C	> 26 µM (inactive)
COc1ccc(-n2c(=S)[nH]c3cc(C(=O)Nc4ccccc4OC)ccc3c2=O)cc1	> 26 µM (inactive)
Cc1nn(Cc2c(Cl)cccc2Cl)c(C)c1NC(=O)c1cn(-c2ccccc2)nc1-c1ccccc1	> 26 µM (inactive)
CCN1c2ccccc2N(C)C1(C)c1ccccc1 (configuration not stated)	> 26 µM (inactive)
COc1ccc(/C(C)=N/NC(=O)c2cccc(S(=O)(=O)N3CCCC3)c2)c(O)c1	> 26 µM (inactive)
Cc1cccc(NC(=O)Nc2cccc(Oc3c(F)c(F)c(F)c(F)c3F)c2)c1	> 26 µM (inactive)
Nc1c(C(=O)Nc2ccc3c(c2)OCCO3)nnn1Cc1ccccc1Cl	> 26 µM (inactive)
